This passage reports IC50 results from US20110158944A1, “BRAF BIOMARKERS” (priority 2007, published 2011).

Like-named read-outs stand apart in the source and are kept apart here. Bounds are passed on as bounds.

Common to all, as to assay: Cell proliferation IC50 (Cell Titer Glo)
A general note: Cellular ATP, detected with luciferase, serves as a proxy for viable cell number.

Test [1] deals with 8505C. Format: cell-based. The following applies: Homo sapiens, 96 h, read-out: IC50 cell proliferation. As for the experimental part:
(§1) IC50 Cell proliferation measurements. Cell proliferation was assessed in the 41 tumor cell lines set forth in Table 2 after 4 days of continuous exposure to either the ERK1/2 inhibitor, compound a or the MEK inhibitor compound b (PD0325901) using Promega Cell Titer Glo reagent (Promega Corp, Madison, Wis.). Promega's CellTiter-Glo™ Luminescent Cell Viability Assay is a sensitive method for assaying cell proliferation using a stable form of luciferase to measure ATP as an indicator of viable cells. This reagent allows a homogeneous method of determining cell number by quantitation of ATP. The luciferase luminescent signal produced is proportional to the number of viable cells present in culture.
(§2) A 1000× compound dose response curve, containing 8 dilutions of each compound, was prepared on a 96-well plate. Compounds were diluted in 100% DMSO to the following (1000×) concentrations: compound b: 1000 μM, 333 μM, 111 μM, 37 μM, 12 μM, 4.1 μM, 1.4 μM and 0.5 μM; compound a: 3000 μM, 1000 μM, 333 μM, 111 μM, 37 μM, 12 μM, 4.1 μM and 1.4 μM. This compound source plate was sealed and kept frozen between uses.
(§3) Cells were grown in RPMI 1640 medium supplemented with 10% Fetal Bovine Serum, 2 mM Glutamine and non-essential amino acids or DMEM/F12 Media containing the same supplements. On day zero, cells were trypsinized, counted and plated into wells of a 96-well Wallac TC Isoplate (Perkin-Elmer Wallac, Gaithersburg, Md.) at a density of 1500-2000 cells per well in 50 μl of complete media. An additional 6-8 replicate well of the cells at the same density were plated on a separate Wallac TC Isoplate. This plate was developed on day 1 to determine the cell-growth baseline.
(§4) On day 1 of treatment, compound was diluted to 2× in media and immediately added to the cells as follows: one ml of media was added to each well of a deep-well 96-well plate and 2 μl of 1000× compound was added with mixing to make 2× compound in media. 50 μl of the media containing 2× compound was added to the cell plates in duplicate points so the final concentrations for each well were as outlined in Table 1. The plates were then returned to a 37° C. incubator and left undisturbed for 4 days. The day 1 (baseline) plates were developed by first adding 50 μl media (without compound) to bring the volume in each well to 100 μl, then adding 100 μl of Cell Titer Glo reagent (as below).
(§5) After four days of treatment, the plates were developed with Cell Titer Glo (CTG) reagent (Promega Corp.; Madison, Wis.). Reagent was reconstituted as described in the product insert. 100 μl of reagent was added to all treatment and control wells and the plates were gently shaken for 5 minutes then incubated an additional 5 minutes before reading in an Analyst AD (Molecular Devices Corporation; Sunnyvale, Calif.) using the Luminescence settings.
(§6) Data was analyzed in Excel using XLfit 4.2, fit model #205 (Dose Response One Site)

In test [2] the test system is A204. In kind it is cell-based. Particulars: Homo sapiens, read-out: IC50 cell proliferation. The method, then:
as §1, §2, §3, §4, §5, §6

Test [3] relates to A375. Format: cell-based. Particulars: Homo sapiens, A-375, 96 h, read-out: IC50 cell proliferation. The method, then: as §1, §2, §3, §4, §5, §6
Test [4] deals with BxPc-3. In kind it is cell-based. Particulars: Homo sapiens, read-out: IC50 cell proliferation. The method, then: as §1, §2, §3, §4, §5, §6
In test [5] the test system is Daudi. In kind it is cell-based. Particulars: Homo sapiens, 96 h, read-out: IC50 cell proliferation. As for the experimental part:
as §1, §2, §3, §4, §5, §6

In test [6] the test system is HT-29. Format: cell-based. Particulars: Homo sapiens, read-out: IC50 cell proliferation. As for the experimental part:
as §1, §2, §3, §4, §5, §6

For test [7], the system named is Hs294T. In kind it is cell-based. The following applies: Homo sapiens, Hs 294T, 96 h, read-out: IC50 cell proliferation. The method, then: as §1, §2, §3, §4, §5, §6
The test system of test [8] is Hs746T. In kind it is cell-based. The following applies: Homo sapiens, 96 h, read-out: IC50 cell proliferation. As for the experimental part:
as §1, §2, §3, §4, §5, §6

Test [9] has as its system IGROV-1. In kind it is cell-based. The following applies: Homo sapiens, read-out: IC50 cell proliferation. As for the experimental part: as §1, §2, §3, §4, §5, §6
Test [10] relates to Jurkat. In kind it is cell-based. Particulars: Homo sapiens, 96 h, read-out: IC50 cell proliferation. As for the experimental part: as §1, §2, §3, §4, §5, §6
The subject of test [11] is LOX. In kind it is cell-based. The following applies: Homo sapiens, 96 h, read-out: IC50 cell proliferation. As for the experimental part: as §1, §2, §3, §4, §5, §6
Test [12] deals with MB-453. Format: cell-based. Particulars: Homo sapiens, 96 h, read-out: IC50 cell proliferation. The method, then: as §1, §2, §3, §4, §5, §6
Test [13] deals with N-87. In kind it is cell-based. Particulars: Homo sapiens, 96 h, read-out: IC50 cell proliferation. The method, then:
as §1, §2, §3, §4, §5, §6

The subject of test [14] is RPMI-7951. Format: cell-based. Particulars: Homo sapiens, read-out: IC50 cell proliferation. The method, then: as §1, §2, §3, §4, §5, §6
The subject of test [15] is SJCRH30. Format: cell-based. Particulars: Homo sapiens, 96 h, read-out: IC50 cell proliferation. As for the experimental part:
as §1, §2, §3, §4, §5, §6

The subject of test [16] is UACC-62. Format: cell-based. The following applies: Homo sapiens, read-out: IC50 cell proliferation. The method, then:
as §1, §2, §3, §4, §5, §6

In test [17] the test system is WM-115. Format: cell-based, human. The following applies: 4 days continuous exposure. As for the experimental part:
as §1, §2, §3, §4, §5, §6

The mark [18] stands for this setting: Leukemia, BRAF V600V Wild type, 4 days continuous exposure.

For the compound `O=C(Nc1ccc2[nH]nc(-c3ccncc3)c2c1)C1CCN(CC(=O)N2CCN(c3ccc(-c4ncccn4)cc3)CC2)C1` (stereo not drawn) [cpd. a], the IC50 is 50 nM in [1] (Thyroid, BRAF V600E Homozygous, 4 days continuous exposure); above 3000 nM in [2] (96 h, A204, Rhabdomyosarcoma, BRAF V600V Wild type, 4 days continuous exposure); 75 nM in [3] (A375, Melanoma, BRAF V600E Homozygous, 4 days continuous exposure); 184 nM in test [4] (96 h, BxPc-3, Pancreas, BRAF V600V Wild type, 4 days continuous exposure); above 3000 nM in test [5] (setting [18]); 50 nM in test [6] (96 h, HT-29, Colon, BRAF V600E Heterozygous, 4 days continuous exposure). The IC50 was 1720 nM in test [7] (Hs294T, Melanoma, BRAF V600E Heterozygous, 4 days continuous exposure); 125 nM in [8] (Gastric, BRAF V600V Wild type, 4 days continuous exposure); 146 nM in [9] (96 h, IGROV-1, Ovarian, BRAF V600V Wild type, 4 days continuous exposure); above 3000 nM in test [10] (setting [18]); 100 nM in [11] (Melanoma, BRAF V600E Homozygous, 4 days continuous exposure); 672 nM in test [12] (MB-453, Breast, BRAF V600E Heterozygous, 4 days continuous exposure). The IC50 was 307 nM in test [13] (N-87, Gastric, BRAF V600V Wild type, 4 days continuous exposure); 344 nM in test [14] (96 h, RPMI-7951, Melanoma, BRAF V600E Heterozygous, 4 days continuous exposure); 2000 nM in test [15] (SJCRH30, Rhabdomyosarcoma, BRAF V600V Wild type, 4 days continuous exposure); 30 nM in test [16] (96 h, UACC-62, Melanoma, BRAF V600E Homozygous, 4 days continuous exposure); below 100 nM in [17] (Homo sapiens, WM-115, 96 h, WM-115, Melanoma, BRAF V600D Heterozygous, read-out: IC50 cell proliferation); 60 nM in [17] (WM-115, Melanoma, BRAF V600D Heterozygous, read-out: IC50 cell proliferation).

For `O=C(NOC[C@H](O)CO)c1ccc(F)c(F)c1Nc1ccc(I)cc1F` [cpd. b, PD0325901], the IC50 is 10 nM in test [1]; 1000 nM in test [2] (A204, 96 h); 5 nM in test [3]; 119 nM in [4] (BXPC-3, 96 h); 1000 nM in test [5]; 20 nM in [6] (HT-29, 96 h). The IC50 in test [7] is 71 nM; in test [8] it was 7 nM; in test [9] (IGROV-1, 96 h) it was 39 nM; in test [10], 1000 nM; in [11] it was 57 nM; in test [12], 1000 nM. The IC50 was 64 nM in [13]; 69 nM in test [14] (RPMI-7951, 96 h); 1000 nM in [15]; 5 nM in test [16] (UACC-62, 96 h); below 10 nM in [17] (Homo sapiens, WM-115, 96 h, read-out: IC50 cell proliferation, WM-115, Melanoma, BRAF V600D Heterozygous); 10 nM in [17] (read-out: IC50 cell proliferation, WM-115, Melanoma, BRAF V600D Heterozygous).
